Source: patent US11406594B2, “Oleogel compositions for retinal drug delivery” (University of Florida Research Foundation, Inc., priority 2017, dated 2022)
Where a name gives a salt, the structure may show the parent alone. Read-outs that look alike come from different tables or passages of the source.

Tests used:
physchem = conditions: 25 °C, aqueous buffer
Description: (§1) A significant parameter for the behavior of the disclosed drug delivery compositions is drug solubility in an aqueous environment and in hydrophobic environment, such as the soybean oil used in the examples described herein. Without wishing to be bound by a particular theory, it is possible that diffusion of the drug in the external medium (PBS) is a rate limiting step. Accordingly, solubility of the drug in this phase is crucial for modeling calculations of drug release. Solubility in the oil phase was estimated by preparing drug delivery compositions with different concentrations of drug, and observing the samples under a microscope.

[1] = Solubility limit of drug in oil phase of drug delivery composition (microscopy for visible drug particles)
Description: as §1

[2] = apparent wt %, soybean oil phase, estimated from visible drug particles

CN[C@H](CC(C)C)C(=O)N[C@H]1C(=O)N[C@@H](CC(N)=O)C(=O)N[C@H]2C(=O)N[C@H]3C(=O)N[C@H](C(=O)N[C@H](C(=O)O)c4cc(O)cc(O)c4-c4cc3ccc4O)[C@H](O)c3ccc(c(Cl)c3)Oc3cc2cc(c3O[C@@H]2O[C@H](CO)[C@@H](O)[C@H](O)[C@H]2O[C@H]2C[C@](C)(N)[C@H](O)[C@H](C)O2)Oc2ccc(cc2Cl)[C@H]1O [Vancomycin Hydrochloride]
solubility (physchem): > 89 µg/mL

C[C@@H]1C[C@H]2[C@@H]3CCC4=CC(=O)C=C[C@]4(C)[C@@]3(F)[C@@H](O)C[C@]2(C)[C@@]1(O)C(=O)CO [Dexamethasone]
Solubility Limit in Oil Phase of Drug Delivery Composition [1, 2]: 1%-3%

C[C@@H]1C[C@H]2[C@@H]3CCC4=CC(=O)C=C[C@]4(C)[C@@]3(F)[C@@H](O)C[C@]2(C)[C@@]1(O)C(=O)COP(=O)(O)O [Dexamethasone Phosphate]
Solubility Limit in Oil Phase of Drug Delivery Composition [1]: <0.1%
solubility (physchem; PBS): > 89 µg/mL

CC(C)(C)NC[C@H](O)COc1nsnc1N1CCOCC1 [Timolol Maleate]
Solubility Limit in Oil Phase of Drug Delivery Composition [1, 2]: 0.1%-1%
solubility (physchem; PBS): > 89 µg/mL
